Experimental data reported in patent publication US20110034507A1, “FARNESOID X RECEPTOR AGONISTS” (SMITHKLINE BEECHAM CORPORATION, priority 2007, published 2011).
“Also recorded” adds a separate entry of the source.

Legend:
[1] = test system: rodent models of hepatic fibrosis; conditions: multiple rodent models; cited from earlier work
[2] = test system: hepatic stellate cells (HSC); conditions: cultured HSCs; cited from earlier work
bile duct-ligated mouse = conditions: cited from earlier work
db/db mice = conditions: cited from earlier work
[3] = test system: mice on a lithogenic diet; conditions: cited from earlier work
[4] = test system: C57BL mice on high-fat diet; conditions: cited from earlier work
ob/ob mice = conditions: 30 mg/kg intraperitoneally, male ob/ob mice; cited from earlier work
[5] = target: T1, Human FXRα Ligand Binding Domain (Homo sapiens, UniProt Q96RI1); assay: FXR Cofactor Binding Assay (ligand mediated SRC-1 cofactor peptide interaction, time resolved fluorescence); type: biochemical; conditions: FXRα LBD / SRC-1 (LCD2, 676-700) peptide, TRF; read-out: Activity (pEC50) (converted)
T1 construct: polyhistidine (pRSET-A vector leader) (N); made in house; host or cells: E. coli BL21 (DE3), pRSET-A vector
T1 sequence (Q96RI1 237-472 isoform Q96RI1-2): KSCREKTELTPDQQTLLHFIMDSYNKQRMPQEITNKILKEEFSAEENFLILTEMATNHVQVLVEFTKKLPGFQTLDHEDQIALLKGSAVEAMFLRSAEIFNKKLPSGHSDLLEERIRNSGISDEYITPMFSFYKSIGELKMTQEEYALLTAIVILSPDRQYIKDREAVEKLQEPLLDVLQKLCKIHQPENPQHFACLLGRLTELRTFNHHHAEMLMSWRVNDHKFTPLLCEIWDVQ

[6] = GW4064 100 mg/kg twice a day orally

## CC[C@H]1[C@@H](O)[C@@H]2[C@H](CC[C@]3(C)[C@@H]([C@H](C)CCC(=O)O)CC[C@@H]23)[C@@]2(C)CC[C@@H](O)C[C@@H]12 [Example 6EtCDCA, 6-ethyl-chenodeoxycholic acid]
[1]
  hepatic fibrosis: prevent development and promote resolution
[2]
  expression of α1(I)collagen: decreased
  expression of α-smooth muscle actin: decreased

## CC(C)c1onc(-c2c(Cl)cccc2Cl)c1COc1ccc(/C=C/c2cccc(C(=O)O)c2)c(Cl)c1 [GW4064]
Bile duct-ligated mouse; FXR null mice
  effect on translocation of bacteria in FXR null mice: lost
Bile duct-ligated mouse; bile duct-ligated mouse
  bacterial overgrowth: decreased
  mucosal barrier: improved
  translocation of bacteria to mesenteric lymph nodes: decreased
db/db mice; db/db mice
  glycogen storage in the liver: enhanced
  insulin signalling in the liver: enhanced
db/db mice; diabetic db/db mice
  hyperglycemia: significantly improved
  hyperlipidemia: significantly improved
db/db mice; oral 30 mg/kg, bid, db/db mice
  NEFA: decreased
  blood glucose: decreased
  serum hydroxybutyrate: decreased
  total cholesterol: decreased
  triglyceride: decreased
[3]; FXR null mice
  effect on cholesterol crystal formation in FXR null mice: lost
[3]; mice on a lithogenic diet
  formation of cholesterol crystals in the bile: prevented
[4]; GW4064 100 mg/kg twice a day orally, 100 mg/kg
  body weight (high-fat diet induced body weight gain): decreased; also recorded: reduced
[4]; GW4064 100 mg/kg twice a day orally, GTT, 100 mg/kg
  glucose tolerance: corrected glucose intolerance; also recorded: appeared to improve
[4]; [6]
  liver triglyceride content: reduced
  serum glucose: decreased
  serum insulin: decreased
  serum triglyceride: decreased
[4]
  body fat mass: decreased
  total cholesterol: decreased
ob/ob mice
  body weight: did not alter
  fasting blood glucose: no effect
  food intake: did not alter
  glucose tolerance: improved
  insulin concentration: decreased
  insulin sensitivity: enhanced

## CC(C)c1onc(-c2c(Cl)cccc2Cl)c1COc1ccc2cc(-c3ccnc(C(=O)O)c3)ccc2c1 [Example 20, 4-[6-({[3-(2,6-Dichlorophenyl)-5-(1-methylethyl)-4-isoxazolyl]methyl}oxy)-2-naphthalenyl]-2-pyridinecarboxylic acid]
[5]
  EC50: 102 to 1000 nM

## CC(C)c1onc(-c2c(Cl)cccc2Cl)c1CNc1nc2ccc(-c3cccc(C(=O)O)c3)cc2s1 [Example 37, 3-[2-({[3-(2,6-Dichlorophenyl)-5-(1-methylethyl)-4-isoxazolyl]methyl}amino)-1,3-benzothiazol-6-yl]benzoic acid]
[5]
  EC50: 102 to 1000 nM

## CC(C)c1onc(-c2c(Cl)cccc2Cl)c1COc1ccc2cc(-c3cccc(C(=O)O)n3)ccc2c1 [Example 18, 6-[6-({[3-(2,6-Dichlorophenyl)-5-(1-methylethyl)-4-isoxazolyl]methyl}oxy)-2-naphthalenyl]-2-pyridinecarboxylic acid]
[5]
  EC50: 102 to 1000 nM
